According to patent publication US5556862A, “Pharmaceutical compositions containing isoquinoline derivatives” (Nippon Zoki Pharmaceutical Co., Ltd., priority 1993, dated 1996):
Structures can show the parent of a compound that is named as a salt. Blank lines part the entries; values can stand above or below the compound they belong to.

Target: PDEIV
Experiment: Inhibitory activity towards phosphodiesterase type IV isozyme ([3H] cAMP substrate, in the presence of 10 μM cilostazol)
Type: biochemical
Conditions: type IV isozyme from porcine artery, 30° C.

IC50 (pH 7.5): 26.1 µM
SMILES: CCCCOc1cc(CC2CNC(=O)N2)ccc1OC (stereo not drawn) [Ro20-1724, reference compound]

IC50 (pH 7.5, hydrochloride): 8.1 µM
SMILES: CCOc1ccc(CC2=NCCc3cc(OCC)c(OCC)cc32)cc1OCC [Compound 4, 1-(3',4'-Diethoxybenzyl)-6,7-diethoxy-3,4-dihydroisoquinoline hydrochloride]

IC50 (pH 7.5, monohydrate): 17.2 µM
SMILES: CCOc1ccc(CC2=NCCc3cc(OCC)c(OCC)cc32)cc1OCC [Compound 6, 1-(3',4'-Diethoxybenzyl)-6,7-diethoxy-3,4-dihydroisoquinolinium-theophylline-7-acetate monohydrate]
